Reference: patent publication US5077292A, “(2-imidazolin-2-ylamino) tetrahydroquinoxalines and methods for using same” (priority 1989, dated 1991)

Key:
intraocular pressure = assay: effect on intraocular pressure, topical unilateral administration to rabbit eye; assay type: in vivo, New Zealand white rabbit; conditions: 0.1% (W/V); for Difference In Intraocular Pressure, Initial Effect On Treated Eye / Difference In Intraocular Pressure, Maximum Effect on Treated Eye / Difference In Intraocular Pressure, Maximum Effect On Untreated Eye: single 50 micro liter drop, N.S. = not statistically significant; for Difference In Intraocular Pressure, Maximum Effect On Untreated Eye: untreated (contralateral) eye
Method: The three (3) tetrahydroquinoxaline derivatives produced in accordance with Examples 1 to 3 were tested to determine what effect, if any, these materials have on intraocular pressure.
Each of these materials was dissolved in distilled water at a concentration of 0.1% (W/V). Each of these solutions was administered topically and unilaterally to one eye of a drug-naive, unanesthetized New Zealand white rabbit in a single 50 micro liter drop. The contralateral eye received an equal volume of saline prior to determining the intraocular pressure after the mixture was administered. Also, approximately 10 micro liters of 0.5% (W/V) proparacaine (topical anesthetic) was applied to the corneas of each of the rabbits before determining intraocular pressure. As a control test, six (6) other drug-naive, unanesthetized New Zealand white rabbits were treated and tested as described above except that no tetrahydroquinoxaline derivative was included in the solutions administered to the eyes.
The intraocular pressure was determined in both eyes of each rabbit before and after the solutions were administered. Such intraocular pressure determinations were made in the conventional manner using conventional equipment.

[1] = test system: Alpha 1 Adrenergic Receptors; assay: Rabbit Aorta: Alpha 1 Adrenergic Receptors; assay type: cell-based, albino rabbit; conditions: rabbit aorta rings, 37° C., field stimulated; n = number of test runs
Method: (§1) The tetrahydroquinoxalines produced in Examples 1 to 3 were tested for activity using the following in vitro methods.
Rabbit Aorta: Alpha 1 Adrenergic Receptors
Thoracic aorta and saphenous vein specimens were obtained from albino rabbits that were killed by CO2 inhalation. The aorta and saphenous vein were each cut into 3 mm rings. Tissues were placed in Krebs-Hensleit solution of the following composition (millimolar): NaCl 119; KCl 4.7; MgSO4 1.5, KH2 PO4 1.2; CaCl2 2.5; NaHCO3 25 and glucose 11.0. The solution also contained cocaine (0.1 millimolar) to block neuronal uptake and EDTA (30 micromolar) and ascorbic acid (5 micromolar) to prevent oxidation of the tetrahydroquinoxaline being tested. Tissues were hung in 10 ml organ baths and tension was measured via Grass FT03 force-displacement transducers. Resting tension was 1 g and 2 g for the saphenous vein and aorta, respectively. The solution was gassed with 95% O2 and 5% CO2 and maintained at 37° C. Tissues were allowed to equilibrate for 2 hours before stimulation and the cumulative addition of the tetrahydroquinoxaline being treated was started. Tissue stimulation was performed as with the rabbit vas deferens, described above. The contractions of the tissue were recorded isometrically as for the rabbit vas deferens assay. Cumulative concentration response curves were obtained and the EC50 valve developed for each tetrahydroquinoxaline tested in a manner similar to that for the rabbit vas deferens assay.

[2] = molecular target: T1, Alpha 2 Adrenergic Receptors (Oryctolagus cuniculus, UniProt Q5ZQK3); assay: Rabbit Vas Deferens: Alpha 2 Adrenergic Receptors; assay type: cell-based, New Zealand white rabbit; conditions: 35° C., field stimulated, 50% reduction in response height, n = number of test runs
T1 construct: from tissue; host or cells: New Zealand white rabbit vas deferens, prostatic end, field stimulated
T1 sequence (Q5ZQK3 1-451): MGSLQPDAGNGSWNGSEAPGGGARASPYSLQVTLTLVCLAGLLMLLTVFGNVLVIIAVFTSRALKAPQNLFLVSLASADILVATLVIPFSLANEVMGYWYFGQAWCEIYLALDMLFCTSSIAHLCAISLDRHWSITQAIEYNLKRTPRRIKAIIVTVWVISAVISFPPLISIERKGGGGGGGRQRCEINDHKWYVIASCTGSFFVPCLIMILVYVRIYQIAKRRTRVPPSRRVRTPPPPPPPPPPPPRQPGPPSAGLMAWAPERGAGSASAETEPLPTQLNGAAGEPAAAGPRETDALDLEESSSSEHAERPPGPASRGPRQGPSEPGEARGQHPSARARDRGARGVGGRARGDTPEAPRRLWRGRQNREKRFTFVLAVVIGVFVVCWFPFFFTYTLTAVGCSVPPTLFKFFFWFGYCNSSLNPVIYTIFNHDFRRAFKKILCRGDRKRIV
Method: as §1
Rabbit Vas Deferens: Alpha 2 Adrenergic Receptors
New Zealand white rabbits (2-3 kg) were killed by CO2 inhalation and the vasa deferentia removed. The prostatic ends of the vasa deferentia (2-3 cm lengths) were mounted between platinum ring electrodes in 9 ml organ baths and bathed in Krebs bicarbonate solution of the following composition (millimolar): NaCl 118.0; KCl 4.7; CaCl2 2.5; MgSO4 1.2; KH2 PO4 1.2; glucose 11.0; NaHCO3 25.0; which solution was maintained at 35° C. and bubbled with 95% O2 and 5% CO2. The initial tension of the vas deferens was 0.5 g. The tissues were left to equilibrate for 30 minutes before stimulation was started. Vasa were then field stimulated (0.1 Hz, 2 ms pulse width at 90 mA) using a square wave stimulator (WPI A310 Accupulser with A385 stimulus). […] Cumulative concentration-response curves were obtained for the tetrahydroquinoxaline being tested with a 4 minute contact time at each concentration. The reduction in response height was measured and expressed as a percentage of the height of the response before the addition of tetrahydroquinxoaline. Concentration response curves for each of tetrahydroquinoxalines were plotted. The effective concentration required for a 50% reduction in response height, expressed as EC50, were obtained from these curves and are set forth below.

Compound | Difference In Intraocular Pressure, Initial Effect On Treated Eye (intraocular pressure) | Difference In Intraocular Pressure, Maximum Effect on Treated Eye (intraocular pressure) | Difference In Intraocular Pressure, Maximum Effect On Untreated Eye (intraocular pressure) | EC50 [1] | EC50 [2] | effect on intraocular pressure in the treated eye (in words) (intraocular pressure; treated rabbit eye)
Brc1c(NC2=NCCN2)ccc2c1NCCN2 [drawing 5] | +10.7 ± 3.6% | -16.0 ± 3.3% | N.S. |  |  | 
CC1CNc2ccc(NC3=NCCN3)c(Br)c2N1 (racemic) [Example 3, (±) 3-Methyl-5-bromo-6-(2-imidazolin-2-ylamino)-1,2,3,4-tetrahydroquinoxaline] | N.S. | -12.5 ± 2.2% | N.S. | 1060 ± 271 nM | 21.3 ± 3 nM | effective to reduce intraocular pressure in the treated rabbit eye
